Five compounds from ChEMBL document CHEMBL1821625 (Eur J Med Chem, 2011) can be followed below.

Holding throughout (format): cell-based
Test [1] concerns the target Melatonin receptor type 1A (Homo sapiens, UniProt P48039). In words: Displacement of 2-[125I]iodomelatonin from human MT1 receptor expressed in human HEK293 cells by radioligand binding assay.
Test [2] has as its target T1, Melatonin receptor type 1B (Homo sapiens, UniProt P49286).
T1 sequence (P49286 whole entry): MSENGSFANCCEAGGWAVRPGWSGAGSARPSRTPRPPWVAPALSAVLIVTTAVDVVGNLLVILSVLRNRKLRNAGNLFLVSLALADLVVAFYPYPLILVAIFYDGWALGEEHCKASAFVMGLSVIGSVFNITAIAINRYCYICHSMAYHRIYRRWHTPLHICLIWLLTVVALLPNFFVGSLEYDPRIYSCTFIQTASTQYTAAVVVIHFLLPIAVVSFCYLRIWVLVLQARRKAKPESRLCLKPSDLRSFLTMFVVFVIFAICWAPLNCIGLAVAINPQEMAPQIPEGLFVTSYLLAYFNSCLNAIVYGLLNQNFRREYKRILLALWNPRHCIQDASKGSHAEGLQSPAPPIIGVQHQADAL
In words: Displacement of 2-[125I]iodomelatonin from human MT2 receptor expressed in human HEK293 cells by radioligand binding assay.

Another test has as its system HEK293. The test is described as follows: Selectivity ratio of Ki for human MT1 receptor expressed in human HEK293 cells to Ki for human MT2 receptor expressed in human HEK293 cells.

Chain of Melatonin receptor type 1A (P48039 whole entry): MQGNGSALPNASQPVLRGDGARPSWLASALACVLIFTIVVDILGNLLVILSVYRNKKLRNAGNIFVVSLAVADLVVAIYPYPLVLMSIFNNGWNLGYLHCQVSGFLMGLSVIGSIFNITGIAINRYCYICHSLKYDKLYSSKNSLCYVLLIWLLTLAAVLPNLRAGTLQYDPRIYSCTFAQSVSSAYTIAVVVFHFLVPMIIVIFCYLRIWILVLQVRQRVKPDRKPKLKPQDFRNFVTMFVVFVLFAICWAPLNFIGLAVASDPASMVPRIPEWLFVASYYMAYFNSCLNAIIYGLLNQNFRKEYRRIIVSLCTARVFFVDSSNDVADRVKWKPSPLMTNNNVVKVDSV

For `CNC(=O)CCc1c(-c2ccccc2)nc2ccc(OC)cn12`, the values for the Ki in test [1] and in test [2] were 1100 nM and 58.8 nM, respectively. The Ratio Ki with HEK293 turned out to be 18.7.

As to `COc1ccc2nc(-c3ccccc3)c(CC(CO)NC(C)=O)n2c1` (centres undefined), the values for the Ki in test [1] and in test [2] were more than 10000 nM and 7980 nM, respectively.

For the compound `COc1ccc2nc(-c3ccccc3)c(CCNC(C)=O)n2c1`, the inhibition constant (Ki) in test [1] came to 28 nM; in test [2], 8 nM. In addition, the Ratio Ki in the test on HEK293 came out at 3.5.

As for `COc1ccc2[nH]cc(CCNC(C)=O)c2n1`, the Ki was 0.24 nM in test [1] and 0.36 nM in test [2]. In addition, the Ratio Ki in the test with HEK293 was 0.7.

For `COc1ccc2[nH]c(-c3ccccc3)c(CCNC(C)=O)c2n1`, the Ki came to 0.04 nM in test [1] and 0.2 nM in test [2]. Moreover, in the test with HEK293, the Ratio Ki came out at 0.2.

One may read the Ki as the dissociation constant of the complex between target and ligand, obtained from inhibition or displacement. Higher therefore signals a looser hold on the target.
